Like-named read-outs stand apart in the source and are kept apart here.
Columns and labels:
HeLa cells [1] = assay: Cell death assay (WST-8) in HeLa cells; format: cell-based, human
Experimental: (§1) Human cancer cell lines HeLa (cervical cancer), MIA PaCa-2 (pancreatic cancer), A431 (epidermoid carcinoma), and human embryonic kidney derived cell line HEK293T were cultured in Dulbecco’s Modified Eagle’s Medium (DMEM; Invitrogen) containing 10% fetal bovine serum (FBS), penicillin G (50 units/mL) and streptomycin (50 µg/mL). Human cancer cell lines Panc-1 (pancreatic cancer) and Jurkat (T cell lymphoma) were cultured in RPMI (Gibco) containing 10% FBS, penicillin G (50 units/mL) and streptomycin (50 µg/mL). Human osteosarcoma cell line MG-63, mouse embryonic fibroblast NIH3T3 cells and its transformant NIH3T3/KRAS cells1 were cultured in DMEM (Sigma-Aldrich) containing 10% calf serum, glutamine (0.3 g/L), penicillin G (50 units/mL), and streptomycin (50 µg/mL). All cell lines were incubated at 37 °C in a humidified atmosphere containing 5% CO2.
(§2) The cells were seeded in 96-well plates, cultured overnight, and treated with test compounds for the indicated time. Subsequently, cell viability was measured by the WST-8 assay, using Cell Count Reagent SF (Nacalai Tesque) according to the manufacturer ’s instructions, with the measurement of absorbance set at 450 nm on the ARVO SX 1420 Multilabel Counter (Wallac). […]

[2] = target: T1, His-tagged human recombinant DCTPP1 protein (Homo sapiens, UniProt Q9H773); assay: DCTPP1 enzyme assay; format: biochemical; conditions: at 100 μM
T1 construct: His; purchased ATGen
T1 sequence (Q9H773 1-170): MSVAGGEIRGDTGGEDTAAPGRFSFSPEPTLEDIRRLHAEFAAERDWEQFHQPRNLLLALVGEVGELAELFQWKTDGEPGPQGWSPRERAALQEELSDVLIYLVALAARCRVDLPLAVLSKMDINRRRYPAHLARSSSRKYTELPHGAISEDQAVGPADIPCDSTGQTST
Experimental: Likewise, the enzymatic activities of ITPA and DCTPP1 were measured using a PPiLight Inorganic Pyrophosphate Assay kit. For the ITPA enzyme assay, we used ITPA assay buffer (100 mM Tris-acetate, 50 mM Mg(OAc)2, 0.005% Tween-20, and 2 mM DTT, pH 7.5), His-tagged human recombinant ITPA protein (5 nM; ProSpec), and ITP (25 μM). For the DCTPP1 enzyme assay, we used DCTPP1 assay buffer (100 mM Tris-acetate, 100 mM NaCl, 10 mM Mg(OAc)2, 0.005% Tween-20, and 2 mM DTT, pH 7.5), His-tagged human recombinant DCTPP1 protein (50 nM; ATGen), and deoxycytidine triphosphate (dCTP; 50 μM).
To exclude false positive compounds that inhibit PPi detection, the effects of test compounds on 10 μM Na4P2O7-induced luciferase activity were examined.

[3] = Cell death assay (WST-8) in HeLa cells; format: cell-based, human; conditions: human, HeLa cells (cervical cancer); 72 h, WST-8; read-out: cytotoxicity IC50 against HeLa cells
Experimental: as §1, §2

[4] = tested on: nuclear 53BP1 foci in HeLa cells; assay: 53BP1 foci immunofluorescence (DNA damage); format: cell-based, human; conditions: 24 h, only at the higher concentrations (100-300 μM)
Experimental: For 53BP1, test compound–treated HeLa cells were fixed in 3% formalin in PBS containing 0.1% Triton X-100 for 15 min and permeabilized in 0.5% Triton X-100 for 5 min. After blocking with 10% FBS and 0.1% Triton X-100 in PBS for 1 h, cells were incubated sequentially with a primary antibody against 53BP1 (1:600, sc-22760; Santa Cruz Biotechnology) in blocking solution at 37 °C for 1 h and with Alexa Fluor 568-conjugated secondary antibody (1:400, Life Technologies) under the same condition.
After a quick rinse in PBS, DNA was counterstained with 0.5 µg/mL Hoechst 33342 (Sigma-Aldrich) in PBS at room temperature for 10 min. Images were analyzed on a fluorescence microscope (Delta Vision). […]

[5] = target: T2, His-tagged human recombinant MTH1 protein (Homo sapiens, UniProt P36639); assay: MTH1 enzyme assay (PPiLight pyrophosphate detection); format: biochemical; conditions: MTH1 2 nM
T2 construct: His; purchased ProSpec
Experimental: An MTH1 enzyme assay was performed as described previously with minor modifications. Briefly, test compounds were dissolved in an assay buffer [100 mM Tris-acetate, 40 mM NaCl, 10 mM Mg(OAc)2, 0.005% Tween-20, and 2 mM dithiothreitol (DTT), pH 7.5] containing His-tagged human recombinant MTH1 protein (2 nM; ProSpec). […] Relative MTH1 activity was measured by monitoring the pyrophosphate (PPi) generated through MTH1-catalyzed nucleotide triphosphate hydrolysis. The luciferase-mediated luminescence signal was recorded for 30 min using a luminometer (Molecular Devices).

[6] = tested on: Bcl-2 phosphorylation in HeLa cells; assay: Detection of phosphorylated Bcl-2 (western blot); format: cell-based, human; conditions: 24 h, at the effective concentrations
Experimental: Western blot analysis for detection of phosphorylated Bcl-2 was performed as described previously with several modifications. Briefly, HeLa cells were treated with test compounds for 24 h, then harvested and lysed by sonication in a radioimmunoprecipitation assay buffer (RIPA) buffer containing 25 mM 4-(2-hydroxyethyl)-1-piperazineethanesulfonic acid (HEPES; pH 7.8), 0.5 M NaCl, 5 mM ethylenediaminetetraacetic acid (EDTA), 1.5% Triton-X-100, 1.0% sodium deoxycholate, and 0.1% sodium dodecyl sulfate (SDS), supplemented with a protease inhibitor cocktail (Roche). Samples were subjected to SDS-PAGE and transferred to a PVDF membrane. The membrane was incubated with a primary antibody against Bcl-2 (1:500, #M0887; DAKO) and a horseradish peroxidase-labeled secondary antibody (1:2000, 170-6516; Bio-Rad) in sequence. Then, they were visualized with Fusion Solo S using the SuperSignal West Pico Chemiluminescence Substrate. Phosphorylated Bcl-2 was detected on the upper side of unphosphorylated Bcl-2 by the mobility shift. As a loading control, α-tubulin was detected in the same samples by using a primary antibody against α-tubulin (1:2000, T9026; Sigma-Aldrich).

HeLa cells [7] = assay: Cell cycle analysis (propidium iodide flow cytometry); format: cell-based, human; conditions: 24 h
Experimental: The HeLa cells were seeded in 12-well plates and treated with test compounds for the indicated time. Cells were harvested, washed with PBS, and incubated in propidium iodide (PI) solution containing 50 µg/mL propidium iodide, 0.1% sodium citrate, 0.2% Nonidet P-40, and 0.25 µg/mL RNase A (Nacalai Tesque) for 30 mi n in the dark.
Cellular DNA content was analyzed by fluorescence-activated cell sorting using a Cytomics FC500 (Beckman Coulter). […]

porcine tubulin = target: T3, porcine tubulin (Sus scrofa, UniProt P02550+P02554); assay: In vitro tubulin polymerization assay; format: biochemical; conditions: dose-dependent
T3 construct: purchased Cytoskeleton
Experimental: In vitro tubulin polymerization assay was performed using a tubulin polymerization assay kit (Cytoskeleton) according to the manufacturer’s instructions. Briefly, lyophilized porcine tubulin was solubilized to a final concentration of 2 mg/mL in reaction buffer containing 80 mM piperazine-N,N′-bis(2-ethanesulfonic acid) (PIPES; pH 6.9), 2 mM MgCl2, 0.5 mM ethylene glycol tetraacetic acid (EGTA), 1 mM guanosine-5′-triphosphate (GTP), 10 μM fluorescent reporter, and 20% glycerol, and kept at 4 °C. Compounds (100 × DMSO stock solutions) were added to prewarmed half-area 96-well black plates. Cold tubulin solution was added to the wells. The plate contents were mixed by shaking, and fluorescence (Ex 350 nm, Em 435 nm) was read every minute for 1 h using a fluorescence microplate reader (Molecular Devices).

[8] = tested on: intracellular microtubule networks in HeLa cells; assay: alpha-tubulin immunofluorescence (interphase microtubules); format: cell-based, human; conditions: 6 h, at cytotoxic concentrations
Experimental: For α-tubulin, immunofluorescence was performed as described previously with several modifications2. Briefly, test compound–treated HeLa cells were fixed in 3.7% formalin for 1 min and methanol at -20 °C for 5 min sequentially, and permeabilized in 0.5% Triton X-100 in PBS for 5 min. After blocking with 0.5% BSA in PBS at room temperature for 30 min, cells were incubated sequentially with a primary antibody against α-tubulin (1:200, T9026; Sigma-Aldrich) in the blocking solution at 37 °C for 1 h, and with Alexa Fluor 488-conjugated secondary antibody (1:400, Life Technologies) at 37 °C for 40 min. After a quick rinse in PBS, DNA was counterstained with 0.5 µg/mL Hoechst 33342 in PBS at room temperature for 10 min. Images were analyzed using a fluorescence microscope (Delta Vision). […]
2 Futamura, Y. et al. Morphobase, an encyclopedic cell morphology database, and […]

[9] = tested on: 8-oxo-dG levels in DNA of HeLa cells; assay: 8-oxo-dG immunofluorescence; format: cell-based, human; conditions: 20 h, NPD compounds 100 μM, TH287 3 and 10 μM
Experimental: as §1, with “CO2. […]” for “CO2.”
The HeLa cells were seeded on glass coverslips in 12-well plates, cultured overnight, and treated with test compounds for the indicated time. For 8-oxo-dG, cells were fixed sequentially in 3.7% formalin for 10 min and methanol at -20 °C for 10 min, and then permeabilized in 0.5% Triton X-100 in PBS at room temperature for 5 min. After blocking with 0.5% BSA in PBS at room temperature for 30 min, cells were incubated sequentially with a primary antibody against 8-oxo-dG (5 µg/mL, MOG-020; Japan Institute for the Control of Aging) and with Alexa Fluor 488-conjugated secondary antibody (1:400, Life Technologies) under the same conditions. After a quick rinse in PBS, DNA was counterstained with 0.1 µg/mL 4′,6-diamidino-2-phenylindole (DAPI) in PBS at room temperature for 10 min. Images were analyzed with a fluorescence microscope (BX60, Olympus).

[10] = tested on: other members of the Nudix protein family, nucleoside triphosphate pyrophosphatases; design: method as in PMID 24695224; conditions: cited from earlier work
[11] = tested on: patient-derived malignant melanoma cells; design: method as in PMID 24695224; conditions: cited from earlier work
[12] = tested on: 87 enzymes, GPCRs, kinases, ion channels, and transporters; design: method as in PMID 24695224; conditions: at 10 μM; with few exceptions; cited from earlier work
[13] = substrate 2-OH-dATP (8.3 μM), read-out: IC50 of MTH1 inhibitory activity, 2-OH-dATP
[14] = substrate 8-oxo-dGTP (13.2 μM), read-out: IC50 of MTH1 inhibitory activity, 8-oxo-dGTP

T3 sequence (P02550 whole entry): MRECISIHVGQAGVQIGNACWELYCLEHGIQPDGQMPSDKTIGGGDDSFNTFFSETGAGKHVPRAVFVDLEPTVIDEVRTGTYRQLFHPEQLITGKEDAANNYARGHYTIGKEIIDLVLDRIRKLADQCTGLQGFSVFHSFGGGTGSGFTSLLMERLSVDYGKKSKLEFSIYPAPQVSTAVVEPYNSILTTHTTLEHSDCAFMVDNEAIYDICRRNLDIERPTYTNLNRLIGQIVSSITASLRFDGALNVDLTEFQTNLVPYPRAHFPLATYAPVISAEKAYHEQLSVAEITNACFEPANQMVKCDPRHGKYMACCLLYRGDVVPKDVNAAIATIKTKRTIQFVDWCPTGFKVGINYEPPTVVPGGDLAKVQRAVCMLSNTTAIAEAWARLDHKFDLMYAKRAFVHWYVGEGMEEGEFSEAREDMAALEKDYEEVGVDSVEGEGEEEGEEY
T3 sequence (P02554 whole entry): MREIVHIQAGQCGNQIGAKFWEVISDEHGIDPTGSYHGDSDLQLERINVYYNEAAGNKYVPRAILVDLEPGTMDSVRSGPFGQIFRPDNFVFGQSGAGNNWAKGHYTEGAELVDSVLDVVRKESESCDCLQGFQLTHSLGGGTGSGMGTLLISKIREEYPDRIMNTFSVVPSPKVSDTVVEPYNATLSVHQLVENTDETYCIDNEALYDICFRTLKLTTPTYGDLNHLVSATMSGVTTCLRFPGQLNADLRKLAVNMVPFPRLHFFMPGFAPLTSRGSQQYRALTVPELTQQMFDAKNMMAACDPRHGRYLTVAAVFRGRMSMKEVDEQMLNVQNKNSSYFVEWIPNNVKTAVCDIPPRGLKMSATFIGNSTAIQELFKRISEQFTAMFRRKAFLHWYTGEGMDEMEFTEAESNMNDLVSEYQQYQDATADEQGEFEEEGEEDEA

C[C@H](Oc1cc(-c2cnn(C3CCNCC3)c2)cnc1N)c1c(Cl)ccc(F)c1Cl [(S)-crizotinib, reference compound]
IC50 (HeLa cells [1]; 72 h, WST-8, read-out: cytotoxicity IC50 against HeLa cells): 13 µM | effect on enzymatic activity of DCTPP1 [2]: slightly inhibited

Cn1cnc2c(NCc3ccco3)ncnc21 [NPD8880]
IC50 at 72 h [3]: 650 µM | DNA damage (nuclear 53BP1 foci formation) [4]: induced DNA damage | IC50 [5, 13]: > 1000 µM | IC50 [5, 14]: > 1000 µM

CC(C)OCCCNc1ncnc2[nH]cnc12 [NPD15095]
IC50 [5, 13]: 6.7 µM | IC50 [5, 14]: 3.3 µM

COc1ccc2nc3c(c(C)nn3C)c(NCCOCCO)c2c1 [SCH51344, reference compound]
IC50 (HeLa cells [1]): 5.5 µM | IC50 [5, 13]: 0.75 ± 0.4 µM | IC50 [5, 14]: 0.32 ± 0.04 µM | effect on enzymatic activity of DCTPP1 [2]: slightly inhibited

CNc1cc(-c2cccc(Cl)c2Cl)nc(N)n1 [TH287, reference compound]
Bcl-2 phosphorylation [6]: induced Bcl-2 phosphorylation | population of HeLa cells in G2/M phase (HeLa cells [7]): increased the population of HeLa cells in G2/M phase | effect on tubulin polymerization in vitro (porcine tubulin): inhibited tubulin polymerization | effect on intracellular microtubule networks [8]: disrupted intracellular microtubule networks | accumulation of 8-oxo-dG [9]: increased 8-oxo-dG levels | inhibition of other Nudix family members and nucleoside triphosphate pyrophosphatases [10]: did not inhibit | IC50 [5, 13]: 0.0036 ± 0.0017 µM | IC50 [5, 14]: 0.0022 ± 0.0003 µM

Nc1nc(NC2CC2)cc(-c2cccc(Cl)c2Cl)n1 [TH588]
tumor growth in mouse xenograft model [11]: suppressed tumor growth | Bcl-2 phosphorylation [6]: induced Bcl-2 phosphorylation | population of HeLa cells in G2/M phase (HeLa cells [7]): increased the population of HeLa cells in G2/M phase | effect on tubulin polymerization in vitro (porcine tubulin): inhibited tubulin polymerization | effect against 87 enzymes, GPCRs, kinases, ion channels, and transporters [12]: little effect | effect on intracellular microtubule networks [8]: disrupted intracellular microtubule networks | inhibition of other Nudix family members and nucleoside triphosphate pyrophosphatases [10]: did not inhibit
